Measurements published in PMC11994961, “In Vivo pharmacokinetic interactions of ribociclib with rivaroxaban and apixaban in rats: implications for increased drug exposure and dose adjustments” (Frontiers in Pharmacology, 2025).
Like-named read-outs stand apart in the source and are kept apart here.

What was measured:
[1] = Pharmacokinetic study of rivaroxaban in rats, alone and with ribociclib (UPLC-MS/MS plasma levels); assay type: in vivo, Sprague-Dawley rats; details: for CL/F: read-out: CLz/F (converted); for MRT inf: read-out: MRT0- ∞; for MRT last: read-out: MRT0-t; for Vd/F: read-out: Vz/F
Method: Experimental animals were randomly divided into nine groups (n = 6, Table 1). Ribociclib was suspended in methylcellulose (MC), rivaroxaban was prepared in hydroxypropyl methylcellulose (HPMC), and apixaban was suspended in 5% DMSO in water. To achieve steady-state blood concentrations, a drug typically requires five to seven half-lives. Based on this principle, ribociclib was administered orally for eight consecutive days, while rivaroxaban and apixaban were administered orally for five consecutive days to ensure steady-state concentrations were reached before further analysis.
Approximately 0.1 mL of blood was collected into heparinized tubes via the orbitalat specified time points before and after the final drug administration. For apixaban, blood samples were collected at 0, 0.083, 0.167, 0.25, 0.333, 0.5, 0.75, 1, 3, 5, 7, 10, and 12 h. For rivaroxaban, sampling was conducted at 0, 0.167, 0.333, 0.5, 0.75, 1.5, 2, 3, 4, 5, 6, 8, 10, 12, and 24 h. For ribociclib, samples were taken at 0, 0.5, 1, 2, 4, 5, 6, 8, 10, 12, 24, and 48 h. Blood samples were centrifuged at 3,500 rpm for 10 min, and the supernatant was collected and stored at −80°C until processing for UPLC-MS/MS.
Apixaban and rivaroxaban concentrations in plasma samples were determined using our previously established UPLC-MS/MS method ([Wang et al., 2023]). Ribociclib concentrations were quantified using an LC-30A UPLC system (Shimadzu, Kyoto, Japan) coupled with a Sciex Triple Quad 5500 tandem quadrupole mass spectrometer (AB Sciex, Framingham, MA, United States) equipped with an electrospray ionization interface. Chromatographic separation was performed using a Welch Boltimate column (2.1 mm × 100 mm, 2.7 μm) maintained at 40°C. The mobile phase was composed of water containing 0.1% formic acid (phase A) and acetonitrile (phase B). The flow rate was held constant at 0.3 mL/min. The gradient elution protocol was as follows: 0–2.5 min, 60% B; 2.5–3.5 min, 60%–90% B; 3.5–5.5 min, 90% B; 5.5–5.6 min, 90%–60% B; 5.6–6.6 min, 60% B. The injection volume was 1 μL.
Pharmacokinetic parameters were calculated based on a non-compartmental model using DAS 2.1.1 Software (Mathematical Pharmacology Professional Committee of China, Shanghai, China). The area under the concentration–time curve (AUC), maximum plasma concentration (Cmax), time to maximum plasma concentration (Tmax), the time required to eliminate half of the plasma drug concentration (t1/2), clearance of drug plasma volume per unit time (CLz/F), apparent volume distribution (Vz/F), mean residence time (MRT) and the absorption rate constant (Ka) are all expressed as mean ± standard deviation (SD). SPSS 25.0 statistical software (SPSS Inc., Chicago, IL, United States) was applied to statistically analyze the mainpharmacokinetic parameters. Shapiro-Wilk test was used to assess whether the data were normally distributed, t test was used for parameters conforming to the normal distribution, and Mann-Whitney U test was used for parameters not conforming to the normal distribution. Statistical comparisons were conducted using a analysis of variance, t-test or nonparametric rank-sum test depending on the data type. A P-value <0.05 was deemed statistically significant.

[2] = parameters: method as in Wang et al., 2023; details: rats, with almonertinib; ref Wang et al., 2023; cited from earlier work
[3] = system: Cyp3a1(CYP3A4) mRNA in the liver; assay: qRT-PCR mRNA expression in rat liver after ribociclib; assay type: in vivo; details: rats, ribociclib continuously for 8 days
Excerpt: qRT-PCR analysis was used to determine the mRNA levels of Cyp3a1(CYP3A4) in the liver and Abcb1a (P-gp), Cyp3a1(CYP3A4), Abcg2(BCRP) in the intestines. Total RNA was extracted from frozen liver and intestine samples using the TRNzol Universal reagent, following the manufacturer’s instructions. The Bio Tek Epoch (Bio Tek Instruments, Inc., Winooski, VT, United States) was used to quantify the purity and concentration of the total RNA, based on the ratio of the absorbance at 260 and 280 nm. The RNA samples, each containing 1 µg of material, were converted to complementary DNA (cDNA) using the FastKing RT Kit. The real-time PCR assays were performed using a two-step amplification protocol on the SLAN-96S Real-Time PCR system (Shanghai Hongshi Medical Technology Co., Ltd., Shanghai, China). […] was employed as an internal control, and the PCR cycling criteria were as follows: 95°C for 15 min, followed by 40 cycles of 95°C for 10 s and 60°C for 32 s.

[4] = RIVA 1 mg/kg + multiple doses of RIBO vs RIVA 2 mg/kg alone
[5] = RIVA 2 mg/kg (normal dose) + multiple doses of RIBO vs alone
[6] = RIVA 2 mg/kg + timed RIBO (12 h), RIBO 60 mg/kg for 8 days
[7] = RIVA 2 mg/kg after multiple doses of RIBO vs RIVA 2 mg/kg alone
[8] = RIVA 2 mg/kg with 12-h interval to RIBO vs RIVA 2 mg/kg alone
[9] = Sprague-Dawley, rat, plasma, po, 1 mg/kg, RIVA 1 mg/kg + RIBO 60 mg/kg for 8 days
[10] = Sprague-Dawley, rat, plasma, po, 2 mg/kg, RIVA 2 mg/kg + RIBO 60 mg/kg for 8 days
[11] = Sprague-Dawley, rat, plasma, po, 2 mg/kg, RIVA 2 mg/kg + timed RIBO (12 h), RIBO 60 mg/kg for 8 days
[12] = Sprague-Dawley, rat, plasma, po, 2 mg/kg, oral RIVA 2 mg/kg alone

Compound: O=C(NC[C@H]1CN(c2ccc(N3CCOCC3=O)cc2)C(=O)O1)c1ccc(Cl)s1 [RIVA, rivaroxaban]
- decrease of CLz/F [1, 4]: 70.97%
- decrease of Vz/F [1, 4]: 78.29%
- difference in MRT0- ∞ [1, 4]: not statistically significant
- difference in Tmax [1, 4]: not statistically significant
- increase of AUC0- ∞ [1, 4]: 228.46%
- increase of AUC0-t [1, 4]: 230.62%
- increase of Cmax [1, 4]: 133.14%
- increase of MRT0-t [1, 4]: 30.06%
- increase of AUC0- ∞ [1, 5]: ~2.1 fold
- increase of AUC0-t (AUC) [1, 5]: about 2.4 fold
- increase of Cmax [1, 5]: 1.9 fold
- Cmax ([1]; RIVA 2 mg/kg + RIBO 60 mg/kg for 8 days): 838.33 ± 480.92 ng/mL
- AUC0- ∞ [1, 6]: 2,217.15 ± 800.81 μg/L*h
- Cmax [1, 6]: 454.5 ± 214.88 ng/mL
- Vz/F [1, 6]: 3.72 ± 1.98 L/kg
- t1/2 [1, 6]: 2.65 ± 1.48 h
- decrease of CLz/F [1, 7]: 65.81%
- decrease of Vz/F [1, 7]: 82.91%
- decrease of t1/2z [1, 7]: 57.09%
- difference in MRT0- ∞ [1, 7]: not statistically significant
- difference in Tmax [1, 7]: not statistically significant
- increase of AUC0- ∞ [1, 7]: 213.79%
- increase of AUC0-t [1, 7]: 240.19%
- increase of Cmax [1, 7]: 186.93%
- increase of MRT0-t [1, 7]: 21.39%
- decrease of CLz/F [1, 8]: 34.84%
- decrease of Vz/F [1, 8]: 62.61%
- difference in Cmax [1, 8]: not statistically significant
- difference in MRT0- ∞ [1, 8]: not statistically significant
- difference in Tmax [1, 8]: not statistically significant
- increase of AUC0- ∞ [1, 8]: 63.03%
- increase of AUC0-t [1, 8]: 74.16%
- increase of MRT0-t [1, 8]: 22.54%
- Cmax ([1]; Sprague-Dawley, rat, plasma, oral RIVA 2 mg/kg alone, read-out: Cmax): 292 ± 67.5 ng/mL
- AUC(0-inf) [1, 9]: 4470 ng·h/mL
- AUC(0-t) [1, 9]: 3990 ± 445 ng·h/mL
- Tmax [1, 9]: 1.92 ± 0.2 h
- half-life [1, 9]: 3.34 ± 0.79 h
- CL/F [1, 9]: 7.5 mL/min/kg
- MRT inf [1, 9]: 5.84 ± 0.81 h
- MRT last [1, 9]: 4.5 ± 0.25 h
- Vd/F [1, 9]: 2.16 ± 0.04 L/kg
- AUC(0-inf) [1, 10]: 4270 ng·h/mL
- AUC(0-t) [1, 10]: 4100 ng·h/mL
- Tmax [1, 10]: 2.83 ± 0.41 h
- half-life [1, 10]: 2.15 ± 0.94 h
- CL/F [1, 10]: 8.83 mL/min/kg
- MRT inf [1, 10]: 4.74 ± 0.63 h
- MRT last [1, 10]: 4.2 ± 0.63 h
- Vd/F [1, 10]: 1.7 ± 0.99 L/kg
- AUC(0-t) [1, 11]: 2100 ng·h/mL
- Tmax [1, 11]: 3 ± 0.63 h
- CL/F [1, 11]: 16.8 mL/min/kg
- MRT inf [1, 11]: 4.93 ± 1.3 h
- MRT last [1, 11]: 4.24 ± 0.69 h
- AUC(0-inf) [1, 12]: 1360 ng·h/mL
- AUC(0-t) [1, 12]: 1210 ng·h/mL
- Tmax [1, 12]: 2.13 ± 0.83 h
- half-life [1, 12]: 5.01 ± 3.3 h
- CL/F [1, 12]: 25.8 mL/min/kg
- MRT last [1, 12]: 3.46 ± 0.43 h
- Vd/F [1, 12]: 9.95 ± 4.58 L/kg
- Cmax ([1]; Sprague-Dawley, rat, plasma, po, RIVA 1 mg/kg + RIBO 60 mg/kg for 8 days, read-out: Cmax): 681 ± 75.5 ng/mL
- AUC at 1 mg/kg versus AUC at 2 mg/kg ([1]; both with multiple doses of RIBO): not significantly different
- MRT0- ∞ ([1]; oral RIVA 2 mg/kg alone): 5.31 ± 2.01 h
- increase of Cmax ([1]; reduced RIVA 1 mg/kg + multiple doses of RIBO): 1.3 fold
- increase in AUC [2]: over three fold increases
- increase in Cmax [2]: over three fold increases

Compound: CN(C)C(=O)c1cc2cnc(Nc3ccc(N4CCNCC4)cn3)nc2n1C1CCCC1 [RIBO, ribociclib]
- mRNA expression of Cyp3a1 in the liver [3]: no significant changes
